Measured values published in paper PMC9386018, “A lymphatic-absorbed multi-targeted kinase inhibitor for myelofibrosis therapy” (Nature Communications, 2022).
Several values for one entry are separate records, joined by “and”; a condition that tells them apart may be missing. Identical values can stand only once.

Experiment: Pharmacokinetic analysis of plasma after intravenous and oral dosing
Conditions: for concentration at 0.167 h / concentration at 0.5 h / concentration at 1 h / concentration at 2 h / concentration at 4 h / concentration at 7 h / concentration at 16 h: female, CD-1, mouse, plasma

## O=C(O)c1ccc(F)c(F)c1Nc1ccc(I)cc1F [PD315209, reference compound]
Supplementary Figure 6a, i.v., Time 0.167 h, individual replicates
  Concentration: 779 ng/mL and 846 ng/mL
Supplementary Figure 6a, i.v., Time 0.5 h, individual replicates
  Concentration: 677 ng/mL and 624 ng/mL
Supplementary Figure 6a, i.v., Time 1 h, individual replicates
  Concentration: 440 ng/mL and 492 ng/mL
Supplementary Figure 6a, i.v., Time 2 h, individual replicates
  Concentration: 490 ng/mL and 355 ng/mL
Supplementary Figure 6a, i.v., Time 4 h, individual replicates
  Concentration: 243 ng/mL and 164 ng/mL
Supplementary Figure 6a, i.v., Time 7 h, individual replicates
  Concentration: 72.7 ng/mL and 57.8 ng/mL
Supplementary Figure 6a, i.v., Time 16 h, individual replicates
  Concentration: 4.08 ng/mL
Supplementary Figure 6a, i.v., Time 24 h, individual replicates
  Concentration: 5.08 ng/mL and 1.82 ng/mL and 2.98 ng/mL
Supplementary Figure 6a, p.o., Time 0.167 h, individual replicates
  Concentration: 507 ng/mL and 993 ng/mL and 283 ng/mL
Supplementary Figure 6a, p.o., Time 0.5 h, individual replicates
  Concentration: 891 ng/mL and 764 ng/mL
Supplementary Figure 6a, p.o., Time 1 h, individual replicates
  Concentration: 1540 ng/mL and 1240 ng/mL
Supplementary Figure 6a, p.o., Time 2 h, individual replicates
  Concentration: 490 ng/mL and 399 ng/mL
Supplementary Figure 6a, p.o., Time 4 h, individual replicates
  Concentration: 412 ng/mL and 334 ng/mL
Supplementary Figure 6a, p.o., Time 7 h, individual replicates
  Concentration: 463 ng/mL and 555 ng/mL
Supplementary Figure 6a, p.o., Time 16 h, individual replicates
  Concentration: 362 ng/mL and 491 ng/mL
Supplementary Figure 6a, p.o., Time 24 h, individual replicates
  Concentration: 443 ng/mL and 223 ng/mL and 212 ng/mL
iv, 15 mg kg^−1, Concentration, Supplementary Figure 6a, Time 0.167 h, individual replicates
  concentration at 0.167 h: 934 ng/mL
iv, 15 mg kg^−1, Concentration, Supplementary Figure 6a, Time 0.5 h, individual replicates
  concentration at 0.5 h: 923 ng/mL
iv, 15 mg kg^−1, Concentration, Supplementary Figure 6a, Time 1 h, individual replicates
  concentration at 1 h: 602 ng/mL
iv, 15 mg kg^−1, Concentration, Supplementary Figure 6a, Time 2 h, individual replicates
  concentration at 2 h: 572 ng/mL
iv, 15 mg kg^−1, Concentration, Supplementary Figure 6a, Time 4 h, individual replicates
  concentration at 4 h: 282 ng/mL
iv, 15 mg kg^−1, Concentration, Supplementary Figure 6a, Time 7 h, individual replicates
  concentration at 7 h: 99.2 ng/mL
iv, 15 mg kg^−1, Concentration, Supplementary Figure 6a, Time 16 h, individual replicates
  concentration at 16 h: 7.87 ng/mL
iv, 15 mg kg^−1, Concentration, Time 0.167 h, individual animals, Supplementary Figure 12a
  concentration at 0.167 h: 306 ng/mL
iv, 15 mg kg^−1, Concentration, Time 0.167 h, individual animals, Supplementary Figure 12b
  concentration at 0.167 h: 641 ng/mL
iv, 15 mg kg^−1, Concentration, Time 0.5 h, individual animals, Supplementary Figure 12a
  concentration at 0.5 h: 175 ng/mL
iv, 15 mg kg^−1, Concentration, Time 0.5 h, individual animals, Supplementary Figure 12b
  concentration at 0.5 h: 938 ng/mL
iv, 15 mg kg^−1, Concentration, Time 1 h, individual animals, Supplementary Figure 12a
  concentration at 1 h: 146 ng/mL
iv, 15 mg kg^−1, Concentration, Time 1 h, individual animals, Supplementary Figure 12b
  concentration at 1 h: 783 ng/mL
iv, 15 mg kg^−1, Concentration, Time 2 h, individual animals, Supplementary Figure 12a
  concentration at 2 h: 86.8 ng/mL
iv, 15 mg kg^−1, Concentration, Time 2 h, individual animals, Supplementary Figure 12b
  concentration at 2 h: 510 ng/mL
iv, 15 mg kg^−1, Concentration, Time 4 h, individual animals, Supplementary Figure 12b
  concentration at 4 h: 322 ng/mL
iv, 15 mg kg^−1, Concentration, Time 7 h, individual animals, Supplementary Figure 12a
  concentration at 7 h: 22.8 ng/mL
po, 200 mg kg^−1, Concentration, Time 0.167 h, individual animals, Supplementary Figure 12a
  concentration at 0.167 h: 155 ng/mL
po, 200 mg kg^−1, Concentration, Time 0.5 h, individual animals, Supplementary Figure 12a
  concentration at 0.5 h: 968 ng/mL
po, 200 mg kg^−1, Concentration, Time 0.5 h, individual animals, Supplementary Figure 12b
  concentration at 0.5 h: 692 ng/mL
po, 200 mg kg^−1, Concentration, Time 1 h, individual animals, Supplementary Figure 12b
  concentration at 1 h: 841 ng/mL
po, 200 mg kg^−1, Concentration, Time 2 h, individual animals, Supplementary Figure 12a
  concentration at 2 h: 2500 ng/mL
po, 200 mg kg^−1, Concentration, Time 4 h, individual animals, Supplementary Figure 12a
  concentration at 4 h: 3420 ng/mL
po, 200 mg kg^−1, Concentration, Time 7 h, individual animals, Supplementary Figure 12a
  concentration at 7 h: 1870 ng/mL
po, 200 mg kg^−1, Concentration, Time 7 h, individual animals, Supplementary Figure 12b
  concentration at 7 h: 1070 ng/mL
po, 200 mg kg^−1, Concentration, Time 16 h, individual animals, Supplementary Figure 12b
  concentration at 16 h: 2410 ng/mL
po, 400 mg kg^−1, Concentration, Supplementary Figure 6a, Time 0.5 h, individual replicates
  concentration at 0.5 h: 644 ng/mL
po, 400 mg kg^−1, Concentration, Supplementary Figure 6a, Time 1 h, individual replicates
  concentration at 1 h: 1700 ng/mL
po, 400 mg kg^−1, Concentration, Supplementary Figure 6a, Time 2 h, individual replicates
  concentration at 2 h: 787 ng/mL
po, 400 mg kg^−1, Concentration, Supplementary Figure 6a, Time 4 h, individual replicates
  concentration at 4 h: 398 ng/mL
po, 400 mg kg^−1, Concentration, Supplementary Figure 6a, Time 7 h, individual replicates
  concentration at 7 h: 473 ng/mL
po, 400 mg kg^−1, Concentration, Supplementary Figure 6a, Time 16 h, individual replicates
  concentration at 16 h: 572 ng/mL
i.v., Time 0.167 h, individual animals, Supplementary Figure 12a
  Concentration: 324 ng/mL and 426 ng/mL
i.v., Time 0.5 h, individual animals, Supplementary Figure 12a
  Concentration: 148 ng/mL and 180 ng/mL
i.v., Time 1 h, individual animals, Supplementary Figure 12a
  Concentration: 168.8 ng/mL and 187.8 ng/mL
i.v., Time 1 h, individual animals, Supplementary Figure 12b
  Concentration: 1480 ng/mL and 1110 ng/mL
i.v., Time 2 h, individual animals, Supplementary Figure 12a
  Concentration: 50 ng/mL and 64 ng/mL
i.v., Time 2 h, individual animals, Supplementary Figure 12b
  Concentration: 498 ng/mL and 604 ng/mL
i.v., Time 4 h, individual animals, Supplementary Figure 12a
  Concentration: 45.8 ng/mL and 21 ng/mL and 26 ng/mL
i.v., Time 4 h, individual animals, Supplementary Figure 12b
  Concentration: 244 ng/mL and 464 ng/mL
i.v., Time 7 h, individual animals, Supplementary Figure 12a
  Concentration: 12.78 ng/mL
i.v., Time 7 h, individual animals, Supplementary Figure 12b
  Concentration: 206 ng/mL and 134 ng/mL and 272 ng/mL
i.v., Time 16 h, individual animals, Supplementary Figure 12b
  Concentration: 25.9 ng/mL and 66.9 ng/mL and 61.2 ng/mL
i.v., Time 24 h, individual animals, Supplementary Figure 12b
  Concentration: 6.26 ng/mL and 32.6 ng/mL and 25 ng/mL
p.o., Time 0.167 h, individual animals, Supplementary Figure 12a
  Concentration: 145.8 ng/mL and 107.6 ng/mL and 206 ng/mL and 132.6 ng/mL and 193 ng/mL
p.o., Time 0.167 h, individual animals, Supplementary Figure 12b
  Concentration: 181 ng/mL
p.o., Time 0.5 h, individual animals, Supplementary Figure 12a
  Concentration: 788 ng/mL and 600 ng/mL
p.o., Time 1 h, individual animals, Supplementary Figure 12a
  Concentration: 1006 ng/mL and 784 ng/mL and 260 ng/mL and 1464 ng/mL and 1172 ng/mL and 1344 ng/mL
p.o., Time 2 h, individual animals, Supplementary Figure 12a
  Concentration: 2100 ng/mL and 1302 ng/mL
p.o., Time 4 h, individual animals, Supplementary Figure 12a
  Concentration: 2980 ng/mL and 1762 ng/mL
p.o., Time 7 h, individual animals, Supplementary Figure 12a
  Concentration: 1768 ng/mL and 1234 ng/mL
p.o., Time 16 h, individual animals, Supplementary Figure 12a
  Concentration: 414 ng/mL and 996 ng/mL and 1288 ng/mL
p.o., Time 24 h, individual animals, Supplementary Figure 12a
  Concentration: 996 ng/mL and 508 ng/mL and 280 ng/mL
